Assay results from PMC10945332, “Precision peptide theranostics: developing N- to C-terminus optimized theranostics targeting cholecystokinin-2 receptor” (Theranostics, 2024).
Where two headings read alike, the source gives them in different places. Where a SMILES comes first, the peptide text is derived from it. [ ]: non-standard residue; d: D form. The star is where a group is joined. DOTA = O=C(O)CN1CCN(CC(=O)O)CCN(CC(=O)*)CCN(CC(=O)O)CC1; 1Nal = N[C@@H](Cc1cccc2ccccc12)C(=O)O; NMeF = CN[C@@H](Cc1ccccc1)C(=O)O; NMeNle = CCCC[C@H](NC)C(=O)O; Sar = CNCC(=O)O

Assays:
CCK2R = test system: CCK2R; design: method as in PMID 33826325; conditions: cited from earlier work
human CCK2R = biological target: T1, human CCK2R (Homo sapiens, UniProt P32239); assay: Competitive binding against [177Lu]Lu-DOTA-CP04 in A431-CCK2R cells; conditions: linear peptide vs its Ga-DOTA form
T1 construct: stably transfected to over-express the human full-length CCK2R (A431-CCK2R); expressed in transfected cells
T1 sequence (P32239 1-447): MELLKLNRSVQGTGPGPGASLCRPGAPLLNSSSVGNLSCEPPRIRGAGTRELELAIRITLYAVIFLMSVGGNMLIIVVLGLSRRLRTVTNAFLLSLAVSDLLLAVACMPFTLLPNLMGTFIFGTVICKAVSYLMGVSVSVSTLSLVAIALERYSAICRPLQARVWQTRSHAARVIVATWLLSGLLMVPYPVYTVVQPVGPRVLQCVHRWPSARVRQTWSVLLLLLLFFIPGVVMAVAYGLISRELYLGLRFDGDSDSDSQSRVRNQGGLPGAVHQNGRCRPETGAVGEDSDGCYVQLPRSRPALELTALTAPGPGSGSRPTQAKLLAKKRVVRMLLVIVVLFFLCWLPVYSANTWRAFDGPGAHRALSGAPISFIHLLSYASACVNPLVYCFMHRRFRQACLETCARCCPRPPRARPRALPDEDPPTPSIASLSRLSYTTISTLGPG
Description: Materials and Methods: Biology […]
In Vitro CCK2R-Ligand Competitive Binding Assays
All CCK2R binding experiments were conducted using A431 (human epidermoid carcinoma) […]
cells stably transfected to over-express the human full-length CCK2R (A431-CCK2R) (gifted […]
by Dr. Elisabeth von Guggenberg, Medizinische Universität Innsbruck).[41] As a negative […]
control, A431 cells stably transfected with an empty vector were analysed simultaneously […]
(A431-EV). All A431 cells were maintained in DMEM (Gibco, Australia) media supplemented […]
with 10% foetal calf serum and 250 µg/mL G418 as described previously.[32]
The affinity of all peptides for the CCK2R was evaluated using competitive binding assays […]
Briefly, 48 hours before the experiment […]
cells were plated at a density of 300,000 cells per well in 12 well plates. On the day of the […]
experiment, linear peptides were diluted in DMEM supplemented with 1% foetal calf serum to […]
DOTA-CP04 was added to each dilution. Cells were washed twice in ice-cold binding buffer […]
(DMEM supplemented with 1% foetal calf serum) and resuspended in 1 mL of the pre-prepared […]
peptide mix before being incubated at room temperature for 1 hour. Post-incubation the media […]
was removed and kept for analysis (unbound fraction) and the cells were washed twice in ice- […]
cold PBS which was pooled with the unbound fraction. Finally, 1 M NaOH (150µL) was added […]
to the wells and allowed to incubate for 5 min before lysates were collected (bound fraction).
A small volume of lysate was kept aside to determine protein concentration using the Pierce® BCA protein assay kit (Thermo Fisher, Australia). All samples were analysed using the Perkin […]
normalised according to protein concentration. Half maximal inhibitory concentration (IC50) was determined using nonlinear regression calculated using Gr aphPad Prism Software (GraphPad Software, California, USA). […]

[1] = mouse, in vivo
Description: (§1) In order to assess these promising ligands as potential theranostics, the library of [^68Ga]Ga-DOTA-peptides was evaluated using static small animal PET imaging and quantifying biodistribution studies. This study was performed to investigate tumor uptake as well as the accumulation of radioligands in other organs. Mice bearing A431-CCK2R tumors were imaged at 1- and 2 hours post tracer injection, and tracer biodistribution was evaluated at the 1 hour and 2.5 hour time points to quantify tumor uptake and retention. […]
(§2) Small Animal PET Imaging and Biodistribution Studies
(§3) Female NSG mice (age 11-14 weeks) were sourced from Animal Resources Centre, (Canning Vale, Western Australia) and were inoculated subcutaneously on the right flank with 1-3 x 106 […]
(§4) A431-CCK2R cells in PBS:Matrigel (1:1). […]
(§5) Mice were assigned to imaging and/or biodistribution groups (tumour volumes: 119-327 mm3).
(§6) The respective 68Ga labelled tracer (1.63–3.81 MBq, 170µL, 13.7–14.2 pmoles) containing vehicle solution (75µL, DMSO:Tween 80: water, 2:2:6 v/v/v) was then administered to mice intravenously via tail vein injection. Three mice were euthanized for biodistribution 1 hour post injection (n=3) and selected tissues were excised, weighed, and counted using a Capintec (Captus 4000e) gamma counter. Three mice were anaesthetised using 1.5% isoflurane and imaged at 1 hour (n=3) and 2 hours (n=3) with a G8 Small Animal PET/CT scanner (Perkin […]
(§7) Elmer/Sofie Biosciences). A 10 min static PET scan was acquired, followed immediately by a CT scan (Supplementary Data, pS51–S55). PET images were acquired using the G8 acquisition engine software and reconstructed using a 3D maximal likelihood and expectation maximization (ML-EM) algorithm. PET images were analysed using VivoQuant software, version 3.0 (inviCRO Imaging Services and Software) to quantify maximum standardised uptake value in regions of interest (SUVmax). Background regions for imaging experiments were calculated by quantitating mean standardised uptake value (SUVmean) of the abdomen and gut region. The region of interest was selected due to low uptake in abdomen/gut during imaging. After imaging the 2-hour time point, mice organs were harvested for biodistribution […]
(§8) For blocking CCK2R binding a solution of N-[(3R)-2,3-Dihydro-1-[2-(2-methylphenyl)-2-oxoethyl]-2-oxo-5-phenyl-1H-1,4-benzodiazepin-3-yl]-N′-(3-methylphenyl)-urea (YM022; Sigma Aldrich) was used. YM022 (75µL of a 1 mg/ml solution constituting DMSO:Tween 80: water, 2:2:6 v/v/v) was added to the respective 68Ga labelled tracer (1.41–3.61 MBq, 100 µL, 13.7–14.2 pmoles) and this mixture ([…]) was administered in three mice intravenously via tail vein injection and organs harvested at 1 hour post injection for biodistribution analysis, as above.
(§9) All animal experiments were performed with the approval of the Peter MacCallum Cancer Centre Animal Experimentation Ethics Committee and in accordance with the Australian code for the care and use of animals for scientific purposes, 8th Edition, 2013 (AEEC Approval

[2] = format: in vitro ADME, mouse
Description: Metabolic stability is an important determinant of the efficacy of peptide radiopharmaceuticals and their progression as promising theranostic candidates. In vitro, metabolic degradation through hepatic and renal enzymes can be assessed by utilizing liver and kidney tissue homogenates. Radiolabeled peptides [^68Ga]Ga-DOTA-GA4, and D-Ala substituted variants [^68Ga]Ga-DOTA-GA7, [^68Ga]Ga-DOTA-GA11-GA13 were incubated in liver and kidney mouse homogenates, in human serum at 37°C, and in HEPES buffer (pH 7.4) as a negative control. Following a time course experiment, the metabolites were analyzed using HPLC to quantify the % breakdown of the respective parent peptide. […]
To assess the stability of 68Ga radiolabeled peptides against enzymatic degradation, duplicate samples (750-900 pmol/mL, 2-5MBq) were incubated at 37 ℃ with pooled human serum, 15% […]
mouse kidney homogenate, 30% mouse liver homogenate or 20 mM HEPES, pH 7.3 (control).
Human blood was collected, and serum prepared using SSTII advance vacutainer tubes according to the manufacturer’s instructions (Becton Dickinson, New Jersey, USA). Mouse kidney and liver homogenates were prepared by washing the tissues in ice-cold HEPES buffer, pH 7.3 and placing them in pre-chilled tubes containing HEPES buffer and 2.38 mm metal beads (Mo-Bio Laboratories, Hilden, Germany). Tissues were homogenised using the PowerLyzer24 homogeniser (Qiagen, Hilden, Germany) according to the manufacturer’s instructions. 68Ga radiolabeled peptides were then incubated with the various lysates at 37 ℃ and samples were collected at 15, 30, 60 and 90 min. Reactions were terminated by addition of an equal volume of acetonitrile and centrifugation for 2 min at 15,000 rpm. Supernatants were diluted in water before being analysed by HPLC using a Kinetex C18 XB column (5µm

[3] = format: physicochemical
Description: Lipophilicity, expressed as the octanol-water partition coefficient, constitutes an important property in drug action, influencing both pharmacokinetic and pharmacodynamics processes. The distribution coefficient (LogD7.4) of [^68Ga]Ga-DOTA-peptides was determined by measuring radioactivity distribution in the aqueous phase (phosphate buffer pH7.4) and the organic phase (n-octanol). […]
To determine the distribution coefficient (logD 7.4), 68Ga radiolabeled peptides [68Ga]Ga-DOTA-GA4, [68Ga]Ga-DOTA-GA7, and [68Ga]Ga-DOTA-GA11–GA13 were diluted to approximately 20 pmol/mL in PBS (pH 7.4) and an equal volume of n-octanol was added. The mixture was vortexed vigorously for 10 cycles of 1 min at room temperature before being centrifuged for 6 min to separate the two phases. Equal volumes from each phase were aliquoted into individual counting tubes and analysed for 1 min using the Perkin Elmer 2480 Wizard2™ gamma counter (PerkinElmer, Massachusetts, USA). The distribution coefficient was calculated using the following equation LogD = […]. […]

in vivo = conditions: female, NSG, mouse, iv, total radioactivity; for SUV at 1 h / SUV at 2 h: SUVmax
Description: as §1, §2, §3, §4, §5, §6, §7, §8, §9

[4] = 3 mg/kg, Uptake in A431-CCK2R Tumors, 1 hr Blocked
[5] = Uptake in A431-CCK2R Tumors, 1 hr

| Structure (SMILES) | tissue uptake at 1 h [1, 4] | tissue uptake at 1 h [1, 5] | tissue uptake at 2.5 h ([1]; Uptake in A431-CCK2R Tumors) | tissue uptake at 1 h ([1]; Uptake in Organs: Blood) | tissue uptake at 1 h ([1]; Uptake in Organs: Heart) | tissue uptake at 1 h ([1]; Uptake in Organs: Kidneys) | tissue uptake at 1 h ([1]; Uptake in Organs: Liver) | tissue uptake at 1 h ([1]; Uptake in Organs: Lungs) | tissue uptake at 1 h ([1]; Uptake in Organs: Muscle) | tissue uptake at 1 h ([1]; Uptake in Organs: Spleen) | tissue uptake at 1 h ([1]; Uptake in Organs: Stomach) | logD [3] | tissue to tissue ratio at 1 h (in vivo) | SUV at 1 h (in vivo) | SUV at 2 h (in vivo) | also measured |
| --- | --- | --- | --- | --- | --- | --- | --- | --- | --- | --- | --- | --- | --- | --- | --- | --- |
| CCCC[C@@H](C(=O)N[C@@H](CC(=O)O)C(=O)N[C@@H](Cc1cccc2ccccc12)C(N)=O)N(C)C(=O)[C@H](Cc1c[nH]c2ccccc12)NC(=O)CN(C)C(=O)[C@H](Cc1ccc(O)cc1)NC(=O)[C@H](C)NC(=O)[C@@H](CCC(=O)O)NC(=O)[C@@H](CCC(=O)O)NC(=O)[C@@H](CCC(=O)O)NC(=O)[C@@H](CCC(=O)O)NC(=O)[C@@H](CCC(=O)O)NC(=O)[C@H](N)CCC(=O)O [GA1, [D-Glu]6-Ala-Tyr-NMeGly-Trp-NMeNle-Asp-Nal-NH2] (H-[dE][dE][dE][dE][dE][dE]AY[Sar]W[NMeNle]D[1Nal]-NH2) |  |  |  |  |  |  |  |  |  |  |  |  |  |  |  | affinity to the CCK2R target (CCK2R; previously investigated): sub-nanomolar; IC50 (CCK2R; previously shown, Ga-DOTA-GA1 form, read-out: binding affinity (IC50) against CCK2R): 0.05 nM; fold decrease in affinity for CCK2R without gallium coordinated DOTA at the N-terminus (human CCK2R): 5 fold |
| CCCC[C@@H](C(=O)N[C@@H](CC(=O)O)C(=O)N(C)[C@@H](Cc1ccccc1)C(N)=O)N(C)C(=O)[C@H](Cc1c[nH]c2ccccc12)NC(=O)CN(C)C(=O)[C@H](Cc1ccc(O)cc1)NC(=O)[C@H](C)NC(=O)[C@@H](CCC(=O)O)NC(=O)[C@@H](CCC(=O)O)NC(=O)[C@@H](CCC(=O)O)NC(=O)[C@@H](C)NC(=O)[C@@H](CCC(=O)O)NC(=O)[C@@H](CCC(=O)O)NC(=O)CN1CCN(CC(=O)O)CCN(CC(=O)O)CCN(CC(=O)O)CC1 [[^68Ga]Ga-DOTA-GA11, metal not drawn] ({DOTA}-[dE][dE][dA][dE][dE][dE]AY[Sar]W[NMeNle]D[NMeF]-NH2) | 2.07 ± 0.15 %ID/g | 5.6 ± 1.16 %ID/g | 5.42 ± 0.7 %ID/g | 0.46 ± 0.08 %ID/g | 0.27 ± 0.08 %ID/g | 7.38 ± 1.54 %ID/g | 0.29 ± 0.01 %ID/g | 0.59 ± 0.02 %ID/g | 0.09 ± 0.02 %ID/g | 0.34 ± 0.08 %ID/g | 1.04 ± 0.06 %ID/g | -3.56 ± 0.01 | 14.4 ± 2.23 | 0.39 SUV | 0.34 SUV | metabolites in kidney homogenates [2]: no observable metabolites detected; metabolites in liver homogenates [2]: no observable metabolites detected |
| CCCC[C@@H](C(=O)N[C@@H](CC(=O)O)C(=O)N[C@@H](Cc1ccccc1)C(N)=O)N(C)C(=O)[C@H](Cc1c[nH]c2ccccc12)NC(=O)CN(C)C(=O)[C@H](Cc1ccc(O)cc1)NC(=O)[C@H](C)NC(=O)[C@@H](CCC(=O)O)NC(=O)[C@@H](CCC(=O)O)NC(=O)[C@@H](CCC(=O)O)NC(=O)[C@@H](C)NC(=O)[C@@H](CCC(=O)O)NC(=O)[C@@H](CCC(=O)O)NC(=O)CN1CCN(CC(=O)O)CCN(CC(=O)O)CCN(CC(=O)O)CC1 [[^68Ga]Ga-DOTA-GA12, metal not drawn] ({DOTA}-[dE][dE][dA][dE][dE][dE]AY[Sar]W[NMeNle]DF-NH2) | 2.53 ± 0.11 %ID/g | 6.7 ± 0.69 %ID/g | 6.81 ± 1.4 %ID/g | 0.29 ± 0.01 %ID/g | 0.14 ± 0.01 %ID/g | 4.52 ± 0.38 %ID/g | 0.19 ± 0.02 %ID/g | 0.34 ± 0.04 %ID/g | 0.09 ± 0.02 %ID/g | 0.25 ± 0.04 %ID/g | 1.38 ± 0.08 %ID/g | -4.06 ± 0.14 | 24.9 ± 4.57 | 0.5 SUV | 0.45 SUV | Half-life (t1/2) in Kidney Homogenate ([2]; mouse, tissue homogenate): 46.33 min; Half-life (t1/2) in Liver Homogenate ([2]; mouse, tissue homogenate): 64.28 min; half-life ([2]; mouse, tissue homogenate, Half-life (t1/2) in Kidney Homogenate): 46.3 min; half-life ([2]; mouse, tissue homogenate, Half-life (t1/2) in Liver Homogenate): 64.3 min |
